# Data reported in patent US11161885B2, “Antimicrobial protein” (CONSUMO EM VERDE—BIOTECNOLOGIA DAS PLANTAS, S.A., priority 2010, dated 2021).
# Assays:
# Type in all cases: cell-based
# Pseudomonas aeruginosa = test: Time-kill curves for BLAD and/or EDTA; conditions: EDTA at 1 mg/ml alone
# Procedure: (§1) • MIC—Minimum Inhibitory Concentration: the lowest concentration of an antimicrobial that inhibits the visible growth of a microorganism. • MFC/MBC—Minimum Fungicidal/Bactericidal Concentration (or Minimal Lethal Concentration): the lowest concentration of an antimicrobial agent needed to kill 99.9% of the initial inoculum after 24 h under a standardized set of conditions. • Time-kill curves—Determination of the “killing” of an isolate over time by one or more antimicrobial agents under controlled conditions is known as the time-kill method. It is a broth based method where the rate of killing of a fixed inoculum is determined by sampling control (organism, no drug) and antimicrobial agent-containing tubes or flasks, at certain time intervals, and determining the survivor colony count (cfu/ml) by spreading each sample onto an agar plate.
# (§2) Time-kill curves for BLAD and/or EDTA with (A) Listeria monocytogenes, (B) Pseudomonas aeruginosa and (C) Candida albicans: see FIG. 9.
# Listeria monocytogenes = test: Time-kill curves for BLAD and/or EDTA; conditions: EDTA at 0.1 mg/ml alone
# Procedure: as §1, §2
# Candida albicans [1] = test: Time-kill curve and growth curve for BLAD and/or EDTA; conditions: EDTA at 0.1 mg/ml alone
# Procedure: as §1, §2
# Candida albicans [2] = test: Growth curve in PDB pH 7 medium
# Excerpt: Growth curve for BLAD with Candida albicans in PDB pH 7 medium: see FIG. 4.
compound,measurement,setting,value
"O=C(O)CN(CCN(CC(=O)O)CC(=O)O)CC(=O)O [EDTA, ethylenediaminetetraacetic acid]",activity in time-kill curve,Pseudomonas aeruginosa,bacteriostatic
same,activity in time-kill curve,Listeria monocytogenes,neither BLAD at 10 μg/ml nor EDTA at 0.1 mg/ml inhibits growth
same,activity in time-kill curve,Candida albicans [1],fungistatic
C[C@@H]1[C@H](O)[C@@H](C)/C=C/C=C/C=C/C=C/C=C/C=C/C=C/[C@H](O[C@@H]2O[C@H](C)[C@@H](O)[C@H](N)[C@@H]2O)C[C@@H]2O[C@](O)(C[C@@H](O)C[C@@H](O)[C@H](O)CC[C@@H](O)C[C@@H](O)CC(=O)O[C@H]1C)C[C@H](O)[C@H]2C(=O)O [amphotericin B],activity in growth curve,Candida albicans [2]; 10 μg/ml,fungistatic
OC(Cn1cncn1)(Cn1cncn1)c1ccc(F)cc1F [fluconazole],activity in growth curve,Candida albicans [2]; 100 μg/ml,merely delays growth
